Reference: patent US7807658B2, “Use of GabaB receptor agonists” (AstraZeneca AB, priority 1999, dated 2010)

melting point: 126 to 127 °C
Structure (SMILES): NCC(=O)C[PH](=O)O
